# Assay results taken from US11214803B2, “Modulators of YAP1 expression” (Ionis Pharmaceuticals, Inc., priority 2019, dated 2022).
# Strand notation (5' to 3'): a small letter for the sugar, then the base; units joined by * are phosphorothioate-linked, units joined directly phosphodiester-linked; [ ] holds rarer units or linkages, { } end groups; capitals alone tell only the bases. k = constrained ethyl (cEt); [5mC] = 5-methylcytosine; d = 2'-deoxy (DNA)
# Tested on: Yap1 mRNA
# Assay: Antisense inhibition of human Yap1 in A-431 cells by cEt gapmers, single dose (Example 2, RTS4814)
# Format: cell-based
# Conditions: A-431 cells, 5,000 cells per well, free uptake, 2,000 nM modified oligonucleotide, approx. 48 hours, RTS4814, normalized to RIBOGREEN; Table 4; asterisk (*) = targets amplicon region of primer probe set
# In short: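 A-431 cells (5,000/well) took up 2,000 nM 3-10-3 cEt gapmer by free uptake for ~48 h. Yap1 mRNA was quantified by qRT-PCR with primer probe set RTS4814, normalized to RIBOGREEN total RNA, and reported as % of untreated control.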
row,Substance,YAP1 (% UTC)
1,716388 (kA*kG*kA*dG*dG*dT*dG*dG*dT*d[5mC]*dT*dT*dG*kT*kT*k[5mC]; antisense) [Compound 716388],55 % UTC
2,716376 (k[5mC]*kG*kA*dA*dG*dA*dT*dG*d[5mC]*dT*dG*dA*dG*k[5mC]*kT*kG; antisense) [Compound 716376],35 % UTC
3,716484 (k[5mC]*kA*k[5mC]*dT*dT*dT*dT*d[5mC]*d[5mC]*dA*dG*d[5mC]*dT*kA*kA*k[5mC]; antisense) [Compound 716484],35 % UTC

# Same assay, conditions: Table 5; A-431 cells, 5,000 cells per well, free uptake, 2,000 nM modified oligonucleotide, approx. 48 hours; RTS4814; normalized to RIBOGREEN; Yap1 mRNA relative to untreated control cells
row,Substance,YAP1 (% UTC)
1,716491 (k[5mC]*kT*kG*dG*dT*dG*d[5mC]*d[5mC]*dA*d[5mC]*dT*dT*dT*kA*kA*kT; antisense) [Compound 716491],54 % UTC

# Same assay, conditions: Table 6; A-431 cells, 5,000 cells per well, free uptake, 2,000 nM modified oligonucleotide, approx. 48 hours; RTS4814; normalized to RIBOGREEN; Yap1 mRNA relative to untreated control cells
row,Substance,YAP1 (% UTC)
1,716357 (k[5mC]*kG*k[5mC]*d[5mC]*d[5mC]*d[5mC]*dG*dG*d[5mC]*dT*d[5mC]*d[5mC]*dA*k[5mC]*kG*kG; antisense) [Compound 716357],127 % UTC
2,716546 (k[5mC]*kA*k[5mC]*dA*dA*dT*dT*dA*dA*dT*dT*dA*d[5mC]*kT*kG*kT; antisense) [Compound 716546],103 % UTC
3,716450 (kA*kA*k[5mC]*dA*dG*dA*dT*dT*d[5mC]*dA*d[5mC]*dT*dA*kA*kT*kA; antisense) [Compound 716450],83 % UTC
4,716447 (k[5mC]*k[5mC]*kA*dA*d[5mC]*d[5mC]*dA*dA*d[5mC]*d[5mC]*d[5mC]*d[5mC]*d[5mC]*k[5mC]*k[5mC]*kA; antisense) [Compound 716447],97 % UTC
5,716504 (kA*kT*kA*dA*dA*dA*dG*d[5mC]*d[5mC]*dT*dT*dA*dG*kA*kG*kT; antisense) [Compound 716504],112 % UTC

# Same assay, conditions: Table 7 (gapmers targeting SEQ ID NO: 3 and 4); A-431 cells, free uptake, 2,000 nM, approximately 48 hours, RTS4814
row,Substance,YAP1 (% UTC)
1,716571 (kG*k[5mC]*kT*dG*dA*dA*dG*d[5mC]*d[5mC]*dG*dA*dG*dT*kT*k[5mC]*kA) [Compound 716571],91 % UTC

# Same assay, conditions: Table 18; A-431 cells, 5,000 cells per well, free uptake, 2,000 nM modified oligonucleotide, approx. 48 hours; RTS4814; normalized to RIBOGREEN; Yap1 mRNA as percent of untreated control
row,Substance,YAP1 (% UTC)
1,1074244 (antisense k[5mC]*kT*k[5mC]*dT*dG*dA*d[5mC]*d[5mC]*dA*dG*dA*dA*dG*kA*kT*kG) [Compound 1074244],95 % UTC
2,1075172 (antisense k[5mC]*kT*kT*dT*dA*d[5mC]*dA*dT*dG*dA*dA*d[5mC]*dT*kG*kA*kT) [Compound 1075172],14 % UTC
3,1076068 (k[5mC]*kT*kA*dA*dA*dA*dT*dG*dA*d[5mC]*d[5mC]*dT*dT*kA*kG*k[5mC]; antisense) [Compound 1076068],73 % UTC
4,1074564 (antisense k[5mC]*kT*kG*dA*dA*dT*dT*d[5mC]*d[5mC]*dA*dA*dT*d[5mC]*kG*kA*kG) [Compound 1074564],4 % UTC

# Same assay, conditions: Table 19; A-431 cells, 5,000 cells per well, free uptake, 2,000 nM modified oligonucleotide, approx. 48 hours; RTS4814; normalized to RIBOGREEN; Yap1 mRNA as percent of untreated control
row,Substance,YAP1 (% UTC)
1,1075173 (antisense k[5mC]*kT*kT*dT*dA*dG*dG*dG*d[5mC]*dA*dA*d[5mC]*dT*kG*kT*kA) [Compound 1075173],22 % UTC
2,1076069 (kT*k[5mC]*kT*dA*dA*dA*dA*dT*dG*dA*d[5mC]*d[5mC]*dT*kT*kA*kG; antisense) [Compound 1076069],118 % UTC

# Same assay, conditions: Table 22; Yap1 mRNA as percent of untreated control; 3-10-3 cEt gapmers; single dose
row,Substance,YAP1 (% UTC)
1,1075080 (antisense kA*kT*kT*dA*d[5mC]*dA*dA*dA*dG*dA*d[5mC]*dA*dG*k[5mC]*k[5mC]*k[5mC]) [Compound 1075080],18 % UTC
2,1076200 (kG*kA*kT*dT*dA*d[5mC]*dA*d[5mC]*dT*dA*dT*d[5mC]*dA*kA*kA*kA; antisense) [Compound 1076200],67 % UTC
3,1074280 (antisense kG*kG*kT*d[5mC]*dA*dA*dG*d[5mC]*d[5mC]*dT*dT*dG*dG*kG*kT*k[5mC]) [Compound 1074280],43 % UTC
4,1074760 (kA*k[5mC]*kA*dA*d[5mC]*d[5mC]*dA*dA*dG*dA*dA*dG*d[5mC]*kA*kG*kT; antisense) [Compound 1074760],11 % UTC
5,1074408 (antisense kG*kA*kT*dT*dA*dA*dA*dG*dT*dA*dT*d[5mC]*dT*kT*kG*k[5mC]) [Compound 1074408],23 % UTC

# Same assay, conditions: Table 23; Yap1 mRNA as percent of untreated control; 3-10-3 cEt gapmers; single dose
row,Substance,YAP1 (% UTC)
1,1076041 (kG*kT*kT*dA*dA*dA*dG*dA*dG*dT*dG*dG*dA*kA*kA*kT; antisense) [Compound 1076041],47 % UTC
2,1074825 (kA*k[5mC]*k[5mC]*dT*dG*dA*dG*d[5mC]*dA*d[5mC]*dT*d[5mC]*dA*kT*kT*kT; antisense) [Compound 1074825],36 % UTC
3,1075721 (kT*kT*kA*dA*dA*dT*dA*d[5mC]*d[5mC]*dT*dT*d[5mC]*dT*kA*kG*k[5mC]; antisense) [Compound 1075721],67 % UTC
4,1075689 (k[5mC]*kA*kA*d[5mC]*dT*dA*dT*dA*d[5mC]*dA*dA*dG*dG*k[5mC]*kA*kA; antisense) [Compound 1075689],4 % UTC
5,1075017 (antisense k[5mC]*kT*kT*dA*dA*dA*dG*dT*dG*dA*dT*dA*d[5mC]*kA*k[5mC]*k[5mC]) [Compound 1075017],19 % UTC

# Same assay, conditions: Table 24; Yap1 mRNA as percent of untreated control; 3-10-3 cEt gapmers targeting SEQ ID NO.: 1, and 2
row,Substance,YAP1 (% UTC)
1,1076458 (antisense k[5mC]*kT*kT*dA*dA*dT*dT*dA*dG*d[5mC]*d[5mC]*dT*d[5mC]*kA*kG*kT) [Compound 1076458],6 % UTC
2,1075050 (antisense kA*k[5mC]*k[5mC]*d[5mC]*dA*dA*d[5mC]*dG*dG*dT*d[5mC]*dA*dT*kG*kT*kT) [Compound 1075050],94 % UTC
3,1075370 (k[5mC]*kT*kT*dA*d[5mC]*dG*dA*dA*dT*d[5mC]*dA*d[5mC]*dA*kT*kA*kT; antisense) [Compound 1075370],32 % UTC
4,1075946 (kG*k[5mC]*kT*dG*dA*dA*dT*dA*dA*dG*dT*dA*dA*k[5mC]*kT*kT; antisense) [Compound 1075946],20 % UTC

# Same assay, conditions: Table 25; Yap1 mRNA as percent of untreated control; 3-10-3 cEt gapmers targeting SEQ ID NO.: 1, and 2
row,Substance,YAP1 (% UTC)
1,1076203 (kG*kT*kT*dA*dA*dT*dA*d[5mC]*dA*dT*dG*dG*d[5mC]*k[5mC]*kA*kA; antisense) [Compound 1076203],29 % UTC
2,1075211 (antisense kA*kA*kT*dA*dA*dA*dG*dG*dG*dT*d[5mC]*d[5mC]*dT*kA*kA*k[5mC]) [Compound 1075211],91 % UTC
3,1076235 (kT*k[5mC]*kA*dA*dA*dA*dT*dA*dA*dT*d[5mC]*dA*dG*k[5mC]*k[5mC]*k[5mC]; antisense) [Compound 1076235],34 % UTC
4,1074219 (antisense kA*kG*kT*d[5mC]*dA*dG*dG*dG*d[5mC]*dT*d[5mC]*d[5mC]*dT*kG*k[5mC]*kA) [Compound 1074219],30 % UTC
5,1076459 (antisense k[5mC]*kT*kT*d[5mC]*dA*dA*d[5mC]*dA*dA*dG*dA*d[5mC]*dA*kG*kG*kT) [Compound 1076459],4 % UTC
6,1075339 (kA*k[5mC]*k[5mC]*d[5mC]*dA*dA*dA*dA*dA*d[5mC]*dT*dA*dG*k[5mC]*kT*kT; antisense) [Compound 1075339],70 % UTC

# Same assay, conditions: Table 32; Yap1 mRNA, percent of untreated control; 3-10-3 cEt gapmers targeting SEQ ID NO.: 1, and 2
row,Substance,YAP1 (% UTC)
1,1074930 (antisense k[5mC]*kT*kA*dT*dA*d[5mC]*dA*dA*d[5mC]*dA*dG*dG*d[5mC]*k[5mC]*kT*kG) [compound 1074930],84 % UTC
2,1075058 (antisense kA*kT*kT*dA*d[5mC]*dA*dA*dA*dG*dT*dA*dG*d[5mC]*kA*kA*k[5mC]) [compound 1075058],66 % UTC

# Same assay, conditions: Table 33; Yap1 mRNA, percent of untreated control; 3-10-3 cEt gapmers targeting SEQ ID NO.: 1, and 2
row,Substance,YAP1 (% UTC)
1,1075859 (antisense kA*k[5mC]*kT*dT*dA*dT*d[5mC]*dA*d[5mC]*dT*d[5mC]*dT*dG*k[5mC]*k[5mC]*k[5mC]) [compound 1075859],20 % UTC
2,1075123 (k[5mC]*kT*kT*dT*dA*dG*dG*dA*dA*dA*dG*dG*dG*kT*kA*kT; antisense) [compound 1075123],21 % UTC
3,1074867 (kT*kA*kA*d[5mC]*dA*dT*dA*dT*dG*dA*dG*d[5mC]*dA*kT*kG*k[5mC]; antisense) [compound 1074867],40 % UTC

# Same assay, conditions: Yap1 mRNA as percent of untreated control; A-431 cells; 3-10-3 cEt gapmers targeting SEQ ID NO.: 1, and 2; Table 30
row,Substance,YAP1 (% UTC)
1,1076528 (kT*kT*kA*dT*dA*dA*dT*dG*dG*dG*dA*dG*dG*kA*kT*kT; antisense) [compound 1076528],86 % UTC
2,1076272 (kT*kT*kA*dG*dA*dA*d[5mC]*dA*dA*d[5mC]*dT*dA*d[5mC]*kT*kA*k[5mC]; antisense) [compound 1076272],53 % UTC

# Same assay, conditions: Yap1 mRNA as percent of untreated control; A-431 cells; 3-10-3 cEt gapmers targeting SEQ ID NO.: 1, and 2; Table 31
row,Substance,YAP1 (% UTC)
1,1074385 (k[5mC]*kT*kT*d[5mC]*dA*dA*dG*dG*dT*dA*dG*dT*d[5mC]*kT*kG*kG; antisense) [compound 1074385],17 % UTC
2,1074865 (kA*k[5mC]*kA*dT*dA*dT*dG*dA*dG*d[5mC]*dA*dT*dG*k[5mC]*kT*k[5mC]; antisense) [compound 1074865],46 % UTC
